From patent US11560352B2, “P62-ZZ small molecule modulators” (University of Pittsburgh—Of the Commonwealth System of …, priority 2015, dated 2023)
Where a name gives a salt, the structure may show the parent alone.

Key:
RPMI8266 = assay: inhibition of multiple myeloma cell growth, RPMI8266 cells; type: cell-based; settings: Homo sapiens
Excerpt: (§1) FIG. 2 is a schematic showing in vitro biological assays to validate screened compounds for multiple myeloma cells growth via inhibition of p62-zz domain and PKCζ phosphorylation.

MM1S = assay: inhibition of multiple myeloma cell growth, MM1S cells; type: cell-based; settings: Homo sapiens, MM1.S
Excerpt: as §1

U266 = assay: inhibition of multiple myeloma cell growth, U266 cells; type: cell-based; settings: Homo sapiens, U-266
Excerpt: as §1

[1] = system: RPMI-8226 human multiple myeloma xenograft; assay: subcutaneous RPMI-8226 human multiple myeloma xenograft model: efficacy and tolerability; type: in vivo
Description: The therapeutic efficacy and tolerability of compound XIELP1-106 (also referred to as 10b) was evaluated in the treatment of subcutaneous RPMI-8226 human multiple myeloma xenograft model. The tumor volumes in the two groups at different time points are shown FIG. 3. The mean tumor volume of the XIELP1-106 vehicle control group reached 1,452 mm3 on day 39 after tumor implantation. The treatment of XIELP1-106 (60 mg/kg, ip, q3d×4 wks) produced a strong antitumor activity with T/C value of 23% (p=0.001).
The median survival time (MST) of the vehicle treated mice was 42 days (FIG. 4).

Row | SMILES | IC50 (RPMI8266) | IC50 (MM1S) | IC50 (U266) | T/C value (antitumor activity) ([1]; 60 mg/kg, ip, q3d×4 wks, tumor volume vs vehicle control, day 39 after tumor implantation, p=0.001) | body weight loss ([1]; mice, 60 mg/kg ip q3d, after 3 doses, tolerability developed afterwards) | other gross clinical abnormality ([1]; mice, 60 mg/kg ip q3d×4 wks)
1 | Fc1ccc(COc2ccc(CNC3CCCCC3)cc2OCc2ccc(F)cc2F)c(F)c1 [XIELP1-20a, N-(3,4-bis((2,4-difluorobenzyl)oxy)benzyl)cyclohexanamine] | 1.13 µM | 2.53 µM | – | – | – | –
2 | Fc1ccc(COc2cc(CNC3CCCCC3)cc(OCc3ccc(F)cc3F)c2)c(F)c1 [XIELP1-60, N-(3,5-bis((2,4-difluorobenzyl)oxy)benzyl)cyclohexanamine] | 1.33 µM | 2.51 µM | – | – | – | –
3 | Cc1ccc(COc2ccc(CNCC3CCCCC3)cc2OCc2ccc(C)cc2)cc1 [XIELP1-25b] | 0.92 µM | 1.51 µM | 1.26 µM | – | – | –
4 | Fc1ccc(COc2cc(CNCC3CCCCC3)cc(OCc3ccc(F)cc3F)c2)c(F)c1 [XIELP1-58, N-(3,5-bis((2,4-difluorobenzyl)oxy)benzyl)-1-cyclohexylmethanamine] | 1.4 µM | 2.5 µM | – | – | – | –
5 | Fc1ccc(COc2ccc(CNC3CCCCC3)cc2OCc2ccc(F)cc2)cc1 [XIELP1-12b, N-(3,4-bis((4-fluorobenzyl)oxy)benzyl)cyclohexanamine] | 1.18 µM | 1.77 µM | – | – | – | –
6 | Fc1ccc(COc2ccc(CNCC3CCCCC3)cc2OCc2ccc(F)cc2)cc1 [XIELP1-106, N-(3,4-bis((4-fluorobenzyl)oxy)benzyl)-1-cyclohexylmethanamine Hydrochloride] | 0.72 µM | 2.46 µM | – | 23% | 11.2% | No other gross clinical abnormality was observed
7 | Cc1ccc(COc2ccc(CNC3CCCCC3)cc2OCc2ccc(C)cc2)cc1 [XIELP1-51, N-(3,4-bis((4-methylbenzyl)oxy)benzyl)cyclohexanamine] | 1.83 µM | 5.36 µM | – | – | – | –
8 | Cc1ccc(COc2ccc(CNCCO)cc2OCc2ccc(C)cc2)cc1 [XIELP1-24b, 2-((3,4-bis((4-methylbenzyl)oxy)benzyl)amino)ethan-1-ol] | 0.63 µM | 2.56 µM | 1.21 µM | – | – | –
9 | Fc1ccc(COc2ccc(CNCC3CCCCC3)cc2OCc2ccc(F)cc2F)c(F)c1 [XIELP1-17b, N-(3,4-bis((2,4-difluorobenzyl)oxy)benzyl)-1-cyclohexylmethanamine] | 0.94 µM | 0.84 µM | – | – | – | –
